# Measured values from patent publication US10856562B2, “Flavor composition and edible compositions containing same” (MARS, INCORPORATED, priority 2013, dated 2020).
# Square brackets hold non-standard residues; d marks the D form. Ends that are not written are not given here. pGlu = O=C1CC[C@@H](C(=O)O)N1
# What was measured:
# [1] = test system: panelists; assay: Degree of Difference (DOD) of test rice from control rice; type: in vivo, human; set-up: Degree of Difference in rice: scale not given here; conditions: for Degree of Difference in rice: difference from Control; for Degree of Difference in rice / DOD from Control: rice; for DOD from Control: scale 0.0 to 10.0
# Source text: The present example describes the evaluation of the descriptive profile of pGlu-Cys (identified as “FE-35”), pGlu-Cys-Gly (identified as “FE-36”), pGlu-Cys-Cys (identified as “FE-37”), pGlu-Cys-Val (identified as “FE-38”) and pGlu-Val-Cys (identified as “UE-30”) peptides of the present application. An objective of the study was to understand the efficacy of flavor enhancer compounds FE-35, FE-36, FE-37, FE-38 and UE-30 in increasing concentrations both in solution and in rice, and to determine a Degree of Difference (DOD) score between a control rice sample (which includes NaCl, and no flavor composition peptide) and the test rice samples (with added flavor composition peptides at increasing concentrations).
# [2] = test system: panel of trained tasters; assay: Saltiness of sodium-reduced pasta sauce with peptides, panel of trained tasters; type: in vivo, human
# Protocol: Food product compositions were prepared by admixing flavor composition peptide(s) of the present application with food compositions, wherein the level of sodium (NaCl) in the food product compositions was reduced. The level of sodium was reduced by 25%, 50% or 75% compared to food products compositions that were not admixed with flavor composition peptides. The food product compositions comprising the flavor composition peptides were tasted by a panel of trained tasters and the level of saltiness was compared to the control food products.
# The peptides pGlu-Val-Leu (identified as “SE-13”), pGlu-Val-Cys (identified as “UE-30”) and pGlu-Val-Val (identified as “SE-17”) were tested in Pasta Sauce. The control pasta sauce comprised 540 mg sodium (NaCl) in a 125 g serving.
Substance,Whether consumers notice a difference between the Control and test rice (DOD) ([1]; 1 ppb),Whether consumers notice a difference between the Control and test rice (DOD) ([1]; 10 and 100 ppb),Degree of Difference in rice ([1]; 1.0 ppb),Degree of Difference in rice ([1]; 10.0 ppb),Degree of Difference in rice ([1]; 100.0 ppb),DOD from Control ([1]; 1.0 ppb (5 ppm)),DOD from Control ([1]; 10.0 ppb (50 ppm)),DOD from Control ([1]; 100 ppb (50 ppm)),Whether consumers notice a difference between the Control and test rice (DOD) ([1]; 1 and 10 ppb),Whether consumers notice a difference between the Control and test rice (DOD) ([1]; 10 ppb),Whether consumers notice a difference between the Control and test rice (DOD) ([1]; 100 ppb),Whether consumers notice a difference between the Control and test rice (DOD) ([1]; all concentrations),Whether consumers notice a difference between the Control and test rice (DOD) ([1]; 1 and 100 ppb),Off-taste ([2]; 10 ppb of UE-30),"Saltiness compared to control at 25% reduction ([2]; 25% sodium reduction, 10 and 1 ppb, n=4)","Saltiness compared to control ([2]; control 540 mg Na/serving, test 25, 50, 75% reduction, 10 ppb and 1 ppb, n=4)","Saltiness compared to control ([2]; control 540 mg, test 405 mg Na, SE-13 or SE-17 10 ppb, UE-30 1 ppb, n=4)","Salt enhancement ([2]; test 405 mg Na, SE-17 10 ppb, UE-30 1 ppb)"
[pGlu]-Cys [FE-35],Consumers will likely not notice the difference,Consumers will likely notice a difference,3.8,5.0,5.0,3.8,5.0,5.0,,,,,,,,,,
[pGlu]-Cys-Cys (cysteine pairing not given here) [FE-37],,,4.0,4.5,5.0,4.0,4.5,5.0,Consumers will may or may not notice a difference,Consumers may or may not notice a difference,Consumers will likely notice a difference,,,,,,,
[pGlu]-Cys-Gly [FE-36],,,5.0,5.0,5.5,5.0,5.0,5.5,,,,Consumers will likely notice a difference,,,,,,
[pGlu]-Cys-Val [FE-38],,,4.5,5.0,4.5,4.5,5.0,4.5,,Consumers will likely notice a difference,,,Consumers may or may not notice a difference,,,,,
[pGlu]-Val-Cys [UE-30],Consumers may or may not notice a difference,Consumers will likely notice a difference,4.5,5.0,5.0,4.5,5.0,5.0,,,,,,had a metallic taste,,,,
[pGlu]-Val-Leu [SE-13],,,,,,,,,,,,,,,"to control, slightly less salty.",Test variables perceived less,,
[pGlu]-Val-Val [SE-17],,,,,,,,,,,,,,,,,significantly less salty than,UE-30 did not provide a big
